Values joined by “and” are separate entries in the source; they are usually repeats but may differ in a detail not shown here. Equal entries are not always repeated.
Assays:
[1] = system: H526 cells; experiment: MTT cell growth assay, H526; type: cell-based, human; conditions: 5 days
Procedure: (§1) Fig. 2 NHWD-870 inhibited BRD4 phosphorylation and c-MYC expression, and suppressed cell growth. a Representative western blot analysis of p-BRD4 (s484/488), BRD4, c-MYC, and GAPDH after treatment of MDA-MB231, SUM159, A2780 ES-2, and H526 cells with JQ-1 or NHWD-870 at the indicated concentrations for 24 h. GAPDH served as the loading control. Selected from three independent experiments. b MTT assays of H526, A2780, ES-2, and MDA-MB231 cells treated with JQ-1 or NHWD-870 at the indicated concentrations for 5 days. Data are presented as mean ± SEM from three independent experiments. c, d Clonogenic assays of H526, A2780, ES-2 and MDA-MB231 cells treated with 250 nM JQ-1 or NHWD-870 for 5 days. Shown are representative images (c) and quantification of colonies (d). […] Shown are representative images (e) and quantification of relative colony sizes (f). Scale bar, 50 μm. Data are presented as mean ± SEM from five independent experiments. p values were calculated using two-tailed, unpaired t tests in this figure. **p < 0.01; ***p < 0.001. Source data are provided as a Source Data file.
37℃, 5% CO2. […]

[2] = system: ES-2 cells; experiment: Clonogenic (colony formation) assay, ES-2; type: cell-based, human; conditions: ES-2, 250 nM, 5 days
Procedure: as §1, with “file. […]” for “file.”
5. Colony formation assay. Cells were seeded in 6-well plates at 3,000 cells/well […]
every week. […] Colony numbers were calculated with imageJ version

[3] = Metabolic stability assay, rat liver microsomes; conditions: for Remaining in rat liver microsomes (Sup Fig.6b): in % (unit assumed)
Procedure: (§2) 7. Metabolic stability assay. The metabolic profile of NHWD-870 was determined using mouse, rat, dog, monkey, and human liver microsomes using the protocols […]
(§3) No. Compound ID Exat Mass Stock Conc.
(§4) 1) 100 mM potassium phosphate buffer, PH7.4; 2) 10mM MgCI2
(§5) 1) Intermediate solution: Dilute 5 μL of compound or control from stock solution (10 mM) with 45 uL DMSO,then mixed with 450 μL 1:1 Methanol/Water (Conc.: 10 0 […]
(§6) 2) Working solution: Dilute 50 μL from intermediate solution with 450 μL 100 mM potassium phosphate buffer (Conc.: 10 μM, 4.5%MeOH)
(§7) (3) NADPH regenerating system (final Isocitric dehydrogenase conc.= 1 unit/mL at […]
(§8) 1) β-Nicotinamide adenine dinucleotide phosphate, Vendor: sigma Cat. No. N0505
(§9) 2) Isocitric acid, Vendor: Sigma Cat. No. I1252
(§10) 3) Isocitric dehydrogenase, Vendor: sigma Cat. No. I2002
(§11) (4) Liver microsome solution preparation (final concentration o f 0.5 mg protein/mL) […]
(§12) Cold ACN including 100 ng/mL Tolbutamide and 100 ng/mL Labetalol as internal […]
(§13) 1) Add 10 μL compound or control working solution/well to all plates (T0, T5, T10, T20, T30, T60, NCF60) except matrix blank.
(§14) 2) Dispense 680 μL/well microsome solution to 96-well plate as reserv oir according to […]
(§15) plate map. Then add 80 μL/well to every plate by Apricot, incubate the mixture of microsome solution and compound at 37℃ for about 10 min.
(§16) 3) Add 10 μL 100 mM potassium phosphate buffer/well to NCF60, incubate at 37℃, […]
(§17) 4) After pre-warming, dispense 90 μL/well NADPH regenerating system to 96-well plate as reservoir according to the plate map. Then add 10 μL/well to every plate by Apricot to start reaction.
(§18) 5) Incubate at 37℃, start timer 2.
(§19) 6) Add 300 (μL/well) stop solution (cold in 4℃, including 100 ng/mL Tolbutamide and 100 ng/mL Labetalol) to terminate the reaction.
(§20) 7) The sampling plates are shaked for approx 10 min.
(§21) 8) Samples are centrifuged at 4000 rpm for 20 min under 4℃.
(§22) 9) While centrifuging, load 8×new 96-well plate with 300 μL HPLC water, then transfer 100 μL supernatant, mixed for LC/MS/MS.
(§23) Use equation of first order kinetics to calculate t1/2 and Clin t(mic): […]
(§24) Equation of first order kinetics: […]

[4] = Metabolic stability assay, dog liver microsomes; conditions: for Remaining in Dog liver microsomes (Sup Fig.6c): in % (unit assumed)
Procedure: as §2, §3, §4, §5, §6, §7, §8, §9, §10, §11, §12, §13, §14, §15, §16, §17, §18, §19, §20, §21, §22, §23, §24

[5] = Metabolic stability assay, mouse liver microsomes; conditions: for Remaining in mouse liver microsomes (Sup Fig.6a): in % (unit assumed)
Procedure: as §2, §3, §4, §5, §6, §7, §8, §9, §10, §11, §12, §13, §14, §15, §16, §17, §18, §19, §20, §21, §22, §23, §24

[6] = Beagle, dog, liver microsomes, pH 7.4
[7] = mouse, liver microsomes, pH 7.4

Cc1nnn(C)c1-c1cnc2c3c4cnn(C)c4ccc3n([C@H](c3ccccc3)C3CCOCC3)c2c1 [NHWD-870]
MTT assay, relative cell number ([1]; H526, 0.1 nM): 0.977 and 0.969 and 0.948 | MTT assay, relative cell number ([1]; H526, 1 nM): 0.658 and 0.633 and 0.625 | MTT assay, relative cell number ([1]; H526, 10 nM): 0.268 and 0.226 and 0.235 | MTT assay, relative cell number ([1]; H526, 100 nM): 0.103 and 0.115 and 0.127 | MTT assay, relative cell number ([1]; H526, 500 nM): 0 | MTT assay, relative cell number ([1]; H526, 1000 nM): 0 | MTT assay, relative cell number ([1]; H526, 5000 nM): 0 | MTT assay, relative cell number ([1]; H526, 10000 nM): 0 | Clone Number (clonogenic assay) [2]: 146 and 155 and 103 and 98 and 133 | Remaining (T=60min) ([3]; rat liver microsomes): 22.3% | Remaining (*NCF=60min) ([3]; rat liver microsomes, no cofactor): 76.0% | CLint scaled at 1 µM ([3]; rat, liver microsomes, pH 7.4): 92 mL/min/kg | half-life at 1 µM ([3]; rat, liver microsomes, pH 7.4): 27.1 min | microsomal CLint at 1 µM ([3]; rat, microsomes, pH 7.4): 51.1 µL/min/mg | Remaining in rat liver microsomes (Sup Fig.6b) ([3]; time 0): 100 | Remaining in rat liver microsomes (Sup Fig.6b) ([3]; time 5): 91.753 | Remaining in rat liver microsomes (Sup Fig.6b) ([3]; time 10): 75.9 | Remaining in rat liver microsomes (Sup Fig.6b) ([3]; time 20): 52.356 | Remaining in rat liver microsomes (Sup Fig.6b) ([3]; time 30): 42.131 | Remaining in rat liver microsomes (Sup Fig.6b) ([3]; time 60): 22.275 | CLint scaled at 1 µM [4, 6]: 95.9 mL/min/kg | half-life at 1 µM [4, 6]: 20.8 min | microsomal CLint at 1 µM ([4]; Beagle, dog, microsomes, pH 7.4): 66.6 µL/min/mg | Remaining (T=60min) ([4]; dog liver microsomes): 12.4% | Remaining (*NCF=60min) ([4]; dog liver microsomes, no cofactor): 84.1% | Remaining in Dog liver microsomes (Sup Fig.6c) ([4]; time 0): 100 | Remaining in Dog liver microsomes (Sup Fig.6c) ([4]; time 5): 89.9 | Remaining in Dog liver microsomes (Sup Fig.6c) ([4]; time 10): 73.773 | Remaining in Dog liver microsomes (Sup Fig.6c) ([4]; time 20): 58.934 | Remaining in Dog liver microsomes (Sup Fig.6c) ([4]; time 30): 41.202 | Remaining in Dog liver microsomes (Sup Fig.6c) ([4]; time 60): 25.67 | Remaining (T=60min) ([5]; mouse liver microsomes): 36.2% | Remaining (*NCF=60min) ([5]; mouse liver microsomes, no cofactor): 70.1% | CLint scaled at 1 µM [5, 7]: 139 mL/min/kg | half-life at 1 µM [5, 7]: 39.4 min | microsomal CLint at 1 µM ([5]; mouse, microsomes, pH 7.4): 35.2 µL/min/mg | Remaining in mouse liver microsomes (Sup Fig.6a) ([5]; time 0): 100 | Remaining in mouse liver microsomes (Sup Fig.6a) ([5]; time 5): 95.208 | Remaining in mouse liver microsomes (Sup Fig.6a) ([5]; time 10): 82.243 | Remaining in mouse liver microsomes (Sup Fig.6a) ([5]; time 20): 62.59 | Remaining in mouse liver microsomes (Sup Fig.6a) ([5]; time 30): 51.73 | Remaining in mouse liver microsomes (Sup Fig.6a) ([5]; time 60): 36.198

— article PMC7156724, “Potent BRD4 inhibitor suppresses cancer cell-macrophage interaction” (Nature Communications, 2020)
